The results in this text go back to ChEMBL document CHEMBL3232724, “Decreasing acidity in a series of aldose reductase inhibitors: 2-Fluoro-4-(1H-pyrrol-1-yl)phenol as a scaffold for improved membrane permeation” (Bioorg Med Chem, 2014).

Each structure is given as a SMILES string. Where only a bound is given, the exact number is not on record here.

In data set [1] the target is Aldo-keto reductase family 1 member B1 (Rattus norvegicus) (UniProt P07943). In words: Inhibition of Fischer-344 rat lens ALR2 using D, L-glyceraldehyde as substrate at 100 uM by spectrophotometry. In kind it is tissue-based. The following applies: Lens of camera-type eye.
Data set [2] is filed under the species Rattus norvegicus. In words: Selectivity index, ratio of IC50 for Fischer-344 rat kidney ALR1 to IC50 for Fischer-344 rat lens ALR2. The format is tissue-based. The following applies: Lens of camera-type eye.
Data set [3] addresses Aldo-keto reductase family 1 member B1 (Rattus norvegicus, UniProt P07943). Put plainly: Inhibition of Fischer-344 rat lens ALR2 using D, L-glyceraldehyde as substrate by spectrophotometry. The format is tissue-based, Lens of camera-type eye.
For data set [4], the target named is Aldo-keto reductase family 1 member A1 (Rattus norvegicus, UniProt P51635). Put plainly: Inhibition of Fischer-344 rat kidney ALR1 using D-glucuronate as substrate by spectrophotometry.
The subject of data set [5] is Jejunum. Put plainly: Apparent permeability coefficient in Sprague-Dawley rat jejunum at 10 uM. In kind it is ADME, tissue-based.
Data set [6] concerns Jejunum. The following applies: rat.
Data set [7] in a line: Octanol-water distribution coefficient, log D of the compound at pH 12 by shake flask method. The format is physicochemical.
A short description of data set [8]: Octanol-water distribution coefficient, log D of the compound at pH 7.4 by shake flask method. The format is physicochemical.
Data set [9] can be described thus: Octanol-water distribution coefficient, log D of the compound at pH 7.8 by shake flask method. In kind it is physicochemical.
Data set [10] in a line: Inhibition of glucose-induced sorbitol accumulation in Wistar rat lens at 50 uM after 3 hrs by fluorescence assay (reference value: 755.27 +/- 19.7 nmol/g). In kind it is functional, Lens of camera-type eye.
Data set [11] is described as follows: Octanol-water distribution coefficient, log D of the compound at pH 9.2 by shake flask method. In kind it is physicochemical.
Data set [12] is described as follows: Inhibition of glucose-induced sorbitol accumulation in Wistar rat lens at 10 uM after 3 hrs by fluorescence assay (reference value: 755.27 +/- 19.7 nmol/g). In kind it is functional, Lens of camera-type eye.
Data set [13] in a line: Octanol-water distribution coefficient, log D of the compound at pH 8.5 by shake flask method. In kind it is physicochemical.
Data set [14] is described as follows: Octanol-water distribution coefficient, log D of the compound at pH 8.25 by shake flask method. The format is physicochemical.
Data set [15] in a line: Octanol-water distribution coefficient, log D of the compound at pH 8 by shake flask method. In kind it is physicochemical.
Data set [16] in a line: Octanol-water distribution coefficient, log D of the compound at pH 11 by shake flask method. The format is physicochemical.
Data set [17] concerns Jejunum. In words: Apparent permeability coefficient in Sprague-Dawley rat jejunum at 100 uM. The format is ADME, tissue-based.
Data set [18] is described as follows: Octanol-water distribution coefficient, log D of the compound at pH 7 by shake flask method. The format is physicochemical.

Aldo-keto reductase family 1 member A1, sequence (P51635 whole entry, looked up): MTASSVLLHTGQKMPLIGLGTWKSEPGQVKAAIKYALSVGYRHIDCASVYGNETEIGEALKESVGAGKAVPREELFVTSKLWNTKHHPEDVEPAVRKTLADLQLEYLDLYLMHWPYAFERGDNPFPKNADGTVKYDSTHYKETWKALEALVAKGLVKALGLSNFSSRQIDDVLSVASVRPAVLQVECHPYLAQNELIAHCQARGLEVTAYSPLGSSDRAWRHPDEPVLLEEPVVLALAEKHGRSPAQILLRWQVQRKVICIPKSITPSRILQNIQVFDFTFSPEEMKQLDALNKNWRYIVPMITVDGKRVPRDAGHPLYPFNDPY

In data set [1], `O=C(c1ccccc1)c1ccn(-c2ccc(F)c(F)c2)c1` returned an inhibition of 5.81%.
`O=C(c1ccccc1)c1ccn(-c2ccc(O)cc2)c1`: the Ratio IC50 in [2] was > 1.8. For the same molecule, the figures for the IC50 in data set [3] and in [4] were 55.4 µM and > 100 µM, respectively.
`O=C(c1ccccc1)c1ccn(-c2ccc(O)c(F)c2)c1`: in [2], the Ratio IC50 amounted to 3.79. Besides, the IC50 was 10.1 µM in [3] and 38.2 µM in data set [4].
As for `O=C1OC2(c3ccc(O)cc3Oc3cc(O)ccc32)c2ccccc21` [FLUORESCEIN], the Papp in [5] is recorded as 5.2 ucm/s.
With `CC(C)NCC(O)COc1cccc2ccccc12` (configuration not stated) [PROPRANOLOL], the Papp in data set [6] is 11.1 ucm/s.
Take `O=C(c1ccccc1)c1cc(C(=O)C(F)(F)F)n(-c2ccc(O)c(F)c2)c1`: the logD in data set [7] was -0.38; in [8], 3.86; in [9], 3.5; in data set [11] it was 2.48; in data set [13] it was 3.41; in [14], 3.3. Further, the figures for the log distribution coefficient (logD) in [15] and in data set [16] were 3.6 and 0.66, respectively. The Activity in [10] is recorded as 462.49 nmol/g; in [12], 586.08 nmol/g. In addition, in data set [2], the Ratio IC50 was 19.6. For the same molecule, the IC50 in [3] stood at 1.04 µM; in [4], 20.4 µM.
Turning to `O=C(c1ccccc1)c1cc(C(=O)C(F)F)n(-c2ccc(O)c(F)c2)c1`, in [17], the Papp is on record as 6.4 ucm/s. Besides, the logD in data set [8] stood at 3.1; in data set [11] it was 1.72; in [18] it was 3.41; in data set [13], 2.62; in [15] it was 2.98; in [16], 0.1. In addition, the Activity in data set [10] is recorded as 396.89 nmol/g; in data set [12], 487.07 nmol/g. Besides, the Ratio IC50 in data set [2] came out at 27.3. Besides, the results for the IC50 in data set [3] and in data set [4] were 0.443 µM and 12.1 µM, respectively.
`O=C(c1ccccc1)c1cccn1-c1ccc(O)c(F)c1`: the inhibition in data set [1] was determined as 37.2%.
`O=C(c1cccn1-c1ccc(O)c(F)c1)C(F)(F)F`: in data set [2], the Ratio IC50 was > 1.36. The results for the IC50 in [3] and in [4] were 73.8 µM and > 100 µM, respectively.
In data set [1], `O=C(c1ccccc1)c1ccn(-c2ccc(/C=N/O)c(O)c2)c1` displayed an inhibition of 33.7%.
With `O=C(c1ccc(OC(F)(F)F)cc1)c1ccn(-c2ccc(O)c(F)c2)c1`, in [2], the Ratio IC50 was > 2.4. For the same molecule, the IC50 in data set [3] is 41.7 µM; in data set [4], > 100 µM.
As to `O=C(c1ccccc1)c1ccn(-c2cccc(/C=N/O)c2O)c1`, the inhibition in [1] is 23.5%.
For the molecule `O=C(c1ccccc1)c1ccn(-c2ccc([N+](=O)[O-])c(/C=N/O)c2)c1`, the inhibition in [1] turned out to be 36.3%.
In [1], `O=C(c1ccccc1)c1ccn(-c2ccc(O)c(/C=N/O)c2)c1` returned an inhibition of 35.3%.
Turning to `COc1cccc(C(=O)c2ccn(-c3ccc(O)c(F)c3)c2)c1`, the Ratio IC50 in data set [2] turned out to be 4.25. In addition, the IC50 was 6.75 µM in data set [3] and 28.7 µM in data set [4].
`O=C(c1ccccc1)c1ccn(-c2ccc(/C=N/O)c([N+](=O)[O-])c2)c1` registered an inhibition in data set [1] of 60.5%.
As to `O=C(c1cccn1-c1ccc(O)c(F)c1)C(F)F`, in data set [2], the Ratio IC50 was > 1.65. For the same molecule, the IC50 was 60.8 µM in data set [3] and > 100 µM in data set [4].
For the molecule `O=C(c1ccn(-c2ccc(O)c(F)c2)c1)c1ccc(Br)cc1F`, the Ratio IC50 in [2] worked out at 1.43. Moreover, the concentration for half-maximal inhibition (IC50) amounted to 24.8 µM in data set [3] and 35.5 µM in data set [4].
In the case of `O=C(c1ccc(-c2ccccc2)cc1)c1ccn(-c2ccc(O)c(F)c2)c1`, the inhibition in data set [1] turned out to be 14.2%.
The same measure, in the same setting: with `O=C(c1ccccc1)c1ccn(-c2ccccc2O)c1` the figure was 16.1%; with `O=C(c1ccccc1)c1ccn(-c2cccc(O)c2)c1`, 21.5%.
For `COc1ccc(C(=O)c2ccn(-c3ccc(O)c(F)c3)c2)cc1`, the Ratio IC50 in data set [2] was found to be 2.84. In addition, the IC50 stood at 9.23 µM in [3] and 26.2 µM in data set [4].
In turn, `COc1ccc(C(=O)c2cccn2-c2ccc(O)c(F)c2)cc1` registered an inhibition in data set [1] of 43.7%.

Broadly, the inhibition is the drop in the measured response relative to a control, in per cent. Read a low inhibition as little suppression. In general, IC50 refers to the concentration needed to halve the response being measured. The low end stands for higher potency, the high end for lower potency. A word on the logD: it is the decadic logarithm of the distribution of all forms, ionised or not, between an organic phase and buffer at a given pH. Higher therefore signals higher lipophilicity.
